Experiments:
[1] = in vitro; conditions: human, HEK293 cells
[2] = test system: HeLa; test: cells; conditions: Homo sapiens, 24 h

Compound | EC50 at 24 h [1] | EC50 [2]
O=C(CCC(=O)NCCc1ccc(Cl)c(Cl)c1)NCCCCn1cnc2c(Br)c(Br)c(Br)c(Br)c21 | 15.9 µM | 6.19 µM
O=C(O)c1ccc2c(c1)nc(Nc1cccc(Cl)c1)c1ccncc12 [SILMITASERTIB] | – | 2.1 µM

From ChEMBL document CHEMBL5154638, “Molecular Plasticity of Crystalline CK2α' Leads to KN2, a Bivalent Inhibitor of Protein Kinase CK2 with Extraordinary Selectivity” (J Med Chem, 2022)
